Tests used:
Test in all cases: Post-emergence efficacy (B1), compounds of Formula (I) alone, evaluated after 13 days
Format in all cases: in vivo
[1] = test system: Amaranthus palmeri (AMAPA); details: 500 g/Ha, post-emergence spray
Method: (§1) Seeds of a variety of test species were sown in standard laom-based soil in pots: Ipomoea hederacea (IPOHE), Euphorbia heterophylla (EPHHL), Chenopodium album (CHEAL), Amaranthus palmeri (AMAPA), Lolium perenne (LOLPE), Digitaria sanguinalis (DIGSA), Eleusine indica (ELEIN), Echinochloa crus-galli (ECHCG), Setaria faberi (SETFA). After cultivation for 14 days (post-emergence) under controlled conditions in a glasshouse (at 24/16° C., day/night; 14 hours light; 65% humidity), the plants were sprayed with an aqueous spray solution derived from the dissolution of the technical active ingredient Formula (I) in a small amount of acetone and a special solvent and emulsifier mixture referred to as IF50 (11.12% Emulsogen EL360 TM+44.44% N-methylpyrrolidone+44.44% Dowanol DPM glycol ether), to create a 50 g/I solution which was then diluted to required concentration using 0.25% or 1% Empicol ESC70 (Sodium lauryl ether sulphate)+1% ammonium sulphate as diluent. The delivery of the aqueous spray solution was via a laboratory track sprayer which delivered the aqueous spray composition at a rate of 200 litres per hectare, using a flat fan nozzle (Teejet 11002VS) and an application volume of 200 litre/ha (at 2 bar).
(§2) The test plants were then grown in a glasshouse under controlled conditions (at 24/16° C., day/night; 14 hours light; 65% humidity) and watered twice daily. After 13 days the test was evaluated (100=total damage to plant; 0=no damage to plant).

[2] = test system: Euphorbia heterophylla (EPHHL); details: 500 g/Ha, post-emergence spray
Method: as §1, §2

Eleusine indica (ELEIN) = details: 500 g/Ha, post-emergence spray
Method: as §1, §2

[3] = test system: Chenopodium album (CHEAL); details: 500 g/Ha, post-emergence spray
Method: as §1, §2

Lolium perenne (LOLPE) = details: 312 h, post-emergence spray, read-out: Control of weed species after post-emergence application: LOLPE (100=total damage to plant; 0=no damage to plant)
Method: as §1, §2

[4] = test system: Echinochloa crus-galli (ECHCG); details: 312 h, post-emergence spray, read-out: Control of weed species after post-emergence application: ECHCG (100=total damage to plant; 0=no damage to plant)
Method: as §1, §2

[5] = test system: Ipomoea hederacea (IPOHE); details: 312 h, post-emergence spray, read-out: Control of weed species after post-emergence application: IPOHE (100=total damage to plant; 0=no damage to plant)
Method: as §1, §2

[6] = test system: Digitaria sanguinalis (DIGSA); details: 312 h, post-emergence spray, read-out: Control of weed species after post-emergence application: DIGSA (100=total damage to plant; 0=no damage to plant)
Method: as §1, §2

Setaria faberi (SETFA) = details: 312 h, post-emergence spray, read-out: Control of weed species after post-emergence application: SETFA (100=total damage to plant; 0=no damage to plant)
Method: as §1, §2

| Structure (SMILES) | Control of weed species after post-emergence application: AMAPA (100=total damage to plant; 0=no damage to plant) [1] | Control of weed species after post-emergence application: EPHHL (100=total damage to plant; 0=no damage to plant) [2] | Control of weed species after post-emergence application: ELEIN (100=total damage to plant; 0=no damage to plant) (Eleusine indica (ELEIN)) | Control of weed species after post-emergence application: CHEAL (100=total damage to plant; 0=no damage to plant) [3] | pest or weed control at 500 g/ha (Lolium perenne (LOLPE)) [%] | pest or weed control at 500 g/ha [4] [%] | pest or weed control at 500 g/ha [5] [%] | pest or weed control at 500 g/ha [6] [%] | pest or weed control at 500 g/ha (Setaria faberi (SETFA)) [%] |
| --- | --- | --- | --- | --- | --- | --- | --- | --- | --- |
| N[C@H](CC[n+]1ccc(-c2ncccn2)cn1)C(=O)O.O=C(O)C(F)(F)F.O=C([O-])C(F)(F)F [Compound 1.029, [(1R)-1-carboxy-3-(4-pyrimidin-2-ylpyridazin-1-ium-1-yl)propyl]-ammonium 2,2,2-trifluoroacetate] | 100 | 90 | 100 | 100 |  |  |  |  |  |
| N[C@@H](CC[n+]1ccc(-c2ncccn2)cn1)C(=O)O.O=C(O)C(F)(F)F.O=C([O-])C(F)(F)F [Compound 1.035, [(1S)-1-carboxy-3-(4-pyrimidin-2-ylpyridazin-1-ium-1-yl)propyl]-ammonium 2,2,2-trifluoroacetate] | 100 | 90 | 100 | 100 | 20 | 60 | 90 | 90 | 100 |

— patent US20220192195A1, “HERBICIDAL COMPOSITIONS” (SYNGENTA CROP PROTECTION AG, priority 2019, published 2022)
